The values below come from PubChem BioAssay (NCI).

Assay in all cases: NCI-60 cell line screen, 48 h
The test system of experiment [1] is NCI-H460 lung.
The test system of experiment [2] is UO-31 renal.
Experiment [3] deals with U251 CNS.
For experiment [4], the system named is SF-268 CNS.
The subject of experiment [5] is CAKI-1 renal.
Experiment [6] relates to COLO 205 colon.
The subject of experiment [7] is IGROV1 ovarian.
Experiment [8] has as its system TK-10 renal.
For experiment [9], the system named is A498 renal.
The subject of experiment [10] is MDA-MB-435.
Experiment [11] relates to HOP-62 NSCLC.

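Exposure lasted 48 hours, with cells grown in 96-well plates and compounds tested at five concentrations. The concentration for full growth arrest is given as TGI.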 Some results are limits rather than exact numbers.

Turning to `CC1=CC=CC(C)(C)CC1(O[Si](C)(C)C)C(F)(F)F` (stereo unspecified), the TGI in [1], in experiment [2], in experiment [3], in experiment [4], in experiment [5] and in experiment [6] was more than 100 µM throughout. Also, the TGI in experiment [7], in [8], in experiment [9], in experiment [10] and in experiment [11] was more than 100 µM in each case.
Take `COC(c1ccc(C(C)(C)C)cc1)(c1ccc(C(C)(C)C)cc1)c1cc(C(O)(c2cc(C(OC)(c3ccc(C(C)(C)C)cc3)c3ccc(C(C)(C)C)cc3)c(C)cc2C)c2cc(C(OC)(c3ccc(C(C)(C)C)cc3)c3ccc(C(C)(C)C)cc3)c(C)cc2C)c(C)cc1C`: the TGI in experiment [1], in experiment [2], in experiment [3], in [4], in [5] and in experiment [6] was more than 100 µM in each case. Also, the TGI in experiment [7], in experiment [8], in experiment [9], in [10] and in experiment [11] was more than 100 µM each time.
Consider `Cc1ccc(C2=Nc3c(c(C)nn3-c3ccccc3)N=C(C(=O)O)C2)cc1`, for which the TGI in experiment [1], in [2], in experiment [3], in experiment [4], in experiment [5] and in [6] was more than 10 µM in each case. Also, the TGI in [7], in experiment [8], in experiment [9], in experiment [10] and in [11] was more than 10 µM in each case.
Turning to `Cc1nc(Cl)c(CBr)c(Cl)n1`, the TGI was 8.38 µM in experiment [1]; 3.2 µM in experiment [2]; 4.1 µM in [3]; 8.85 µM in experiment [4]; 4.01 µM in experiment [5]; 3.15 µM in experiment [6]. Further, the TGI in experiment [7] came to 3.39 µM; in experiment [8], 3.68 µM; in experiment [9], 24.7 µM; in [10], 3.3 µM; in experiment [11], 4.03 µM.
`Cc1cc(C)c2c(n1)S(=O)(=O)N(CCCN1CCN(c3cccc(C(F)(F)F)c3)CC1)/C(=C(\O)c1ccc(Cl)cc1)C2=O`: the TGI in [1] was 11 µM; in [2], 10.8 µM; in experiment [3], 14.3 µM; in experiment [4] it was 21.2 µM; in experiment [5] it was 8.77 µM; in experiment [6], 3.58 µM. The TGI is 16.2 µM in experiment [7]; 11.9 µM in experiment [8]; 16.9 µM in experiment [9]; 15 µM in experiment [10]; 37.1 µM in [11].
Turning to `N#CC(C#N)=C1CCCS(=O)(=O)c2ccccc21`, the TGI in experiment [1], in [2], in [3], in experiment [4], in experiment [5] and in [6] was more than 100 µM throughout. For the same molecule, the TGI in experiment [7], in [8], in [9], in experiment [10] and in [11] was more than 100 µM each time.
Turning to `O=C1/C(=C/c2ccc(Br)s2)NC(=S)N1CN1CCOCC1`, the TGI in experiment [1] was more than 100 µM; in experiment [2] it was more than 100 µM; in [3], more than 100 µM; in experiment [4], more than 100 µM; in experiment [5], 66.5 µM; in [6] it was 87.9 µM. For the same molecule, the TGI in experiment [7], in experiment [8], in [9], in experiment [10] and in [11] was more than 100 µM in each case.
Turning to `O=C(O)CNC(=O)c1ccc([As](=O)(O)O)cc1`, the TGI in experiment [1], in experiment [2], in experiment [3], in experiment [4], in [5] and in experiment [6] was more than 100 µM in each case. Besides, the TGI in experiment [7], in experiment [8], in experiment [9], in experiment [10] and in experiment [11] was more than 100 µM each time.
Regarding `N#CSCc1cccc(Nc2cc(=O)[nH]c(=O)[nH]2)c1`, the TGI in experiment [1] was more than 100 µM; in [2], more than 100 µM; in experiment [3] it was more than 100 µM; in experiment [4], 78.4 µM; in experiment [5], more than 100 µM; in experiment [6] it was more than 100 µM. Besides, the TGI in experiment [7], in experiment [8], in [9], in experiment [10] and in experiment [11] was more than 100 µM each time.
`COC(=O)CCCC(=O)C(=Nc1c(Cl)cccc1Cl)NNc1ccc(Cl)cc1`: the TGI was more than 100 µM in experiment [1]; more than 100 µM in [2]; more than 100 µM in experiment [3]; more than 100 µM in experiment [4]; more than 100 µM in [5]; 82.4 µM in experiment [6]. The TGI was more than 100 µM in experiment [7]; more than 100 µM in experiment [8]; 88.6 µM in [9]; more than 100 µM in experiment [10]; more than 100 µM in [11].
For the molecule `CCOC(=O)C1C(=O)CC(O)(c2ccccc2)C(C(=O)OCC)C1c1ccc(OC)cc1` (stereo unspecified), the TGI in experiment [1] was more than 100 µM; in experiment [2] it was more than 100 µM; in [3], more than 76.8 µM; in experiment [4], more than 100 µM; in experiment [5], more than 100 µM; in experiment [6], 47.9 µM. Moreover, the TGI was more than 100 µM in experiment [7]; more than 100 µM in [8]; more than 100 µM in experiment [9]; 11.4 µM in experiment [10]; more than 100 µM in experiment [11].
